Data on 24 molecules can be found in patent US10906894B2, “Compounds containing benzo[d][1,3]oxathiole, benzo[d][1,3]oxathiole 3-oxide or benzo[d][1,3]oxathiole 3,3-dioxide and methods/uses thereof as agonists of g protein-coupled receptor 119” (PRAMANA PHARMACEUTICALS INC., priority 2016, dated 2021).

Like-named read-outs stand apart in the source and are kept apart here. A value given as a limit tells only on which side of the number the result lay.

For this experiment, the target named is T1, GPR119 (Homo sapiens, UniProt Q8TDV5).
T1 sequence (Q8TDV5 1-335): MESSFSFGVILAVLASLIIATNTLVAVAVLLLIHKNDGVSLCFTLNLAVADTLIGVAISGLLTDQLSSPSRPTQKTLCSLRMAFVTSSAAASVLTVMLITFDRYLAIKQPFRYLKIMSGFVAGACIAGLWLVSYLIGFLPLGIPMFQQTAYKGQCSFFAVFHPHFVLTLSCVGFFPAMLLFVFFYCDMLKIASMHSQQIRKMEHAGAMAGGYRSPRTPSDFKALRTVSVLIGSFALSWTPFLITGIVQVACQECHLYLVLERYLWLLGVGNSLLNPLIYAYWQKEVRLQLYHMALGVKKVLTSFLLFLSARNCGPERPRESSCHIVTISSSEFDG
Nature of the experiment: LANCE Ultra cAMP assay: stimulation of GPR119-mediated cAMP production in CHO cells stably expressing human GPR119 receptor. It counts as cell-based. Particulars: for Emax: CHO. Here is the method: The potency of GPR119 receptor agonists was assessed by measuring the stimulation of GPR119-mediated cAMP production with LANCE Ultra cAMP assay (Perkin Elmer, TRF0264) in CHO cells stably expressing human GPR119 receptor (Chantest, cat. #A633). CHO-GPR119 cells were cultured in DMEM/F12 medium supplemented with 10% FBS and 1% NEAA at 37° C., 5% CO2, aliquoted and frozen in liquid nitrogen.
For assay, cells were thawed in a water bath at 37° C., washed in Hank's Balanced Salt Solution (HBSS) and resuspended in Stimulation Buffer 1 (SB1) for 30 min: 5 mM HEPES, pH 7.2-7.4, 0.1% BSA in HBSS. […] The ULight-anti-cAMP antibody (Perkin Elmer, TRF0264) was added to the cell suspension making Mix [Cell suspension/4× ULight-anti-cAMP antibodies]. […] The assay plate was centrifuged 200 g, 5 sec.
Serial dilution (100×) of tested compounds were prepared in DMSO in the range of from 30 nM to 1 mM with half-log step in 384-well plates (Greiner, 781280) using Biomek 2000. 10 test concentrations in two repeats were prepared for each CRC. […] The assay plate was incubated 30 minutes at room temperature on a shaker, 250 rpm to allow GPR119 receptor stimulation. The cAMP level was determined according to the standard kit supplier protocol (PerkinElmer, cat. #TRF0264).
(§1) The stock solution of the Eu-cAMP tracer (Perkin Elmer, TRF0264) was diluted 1:100 in cAMP Detection Buffer (Perkin Elmer, TRF0264), making 2× working concentration and added to the assay plate, 10 μL per well. Assay plate was centrifuged 180 g, 1 sec. Then the assay plate was incubated for 60′ at room temperature on shaker, 250 rpm to allow cAMP detection. The TR-FRET signal was measured at Ex-340 nm/Em-615 and Ex-340 nm/Em-665 nm on the reader Tecan M1000. 0% of cAMP stimulation corresponds to the cells with DMSO only, 100% of cAMP stimulation corresponds to the cells with 10 uM Forskolin. The EC50 value defined as the concentration of the drug that gives half-maximal response, were calculated using GraphPad Prizm 5.0 software with forskolin was used as references at each test. Entries 1-17 in Table A-2 show the biological activity of certain representative compounds using the protocol as described above.
For assay, cells were thawed in a water bath at 37° C., washed in Hank's Balanced Salt Solution (HBSS) and resuspended in Stimulation Buffer 1 (SB1) for 30 min: 5 mM HEPES, pH 7.2-7.4, 0.1% BSA in HBSS. […] The ULight-anti-cAMP antibody (Perkin Elmer, TRF0264) was added to the cell suspension, making Mix [Cell suspension/4× ULight-anti-cAMP antibodies]. […] The assay plate was centrifuged 200 g, 5 sec.
as §1, with “1-14” for “1-17”, “B-2” for “A-2”

[1] abbreviates: Table B-2 entries 15-39, modified protocol, 500 cells/well, read-out: % cAMP Max.
The mark [2] stands for this setting: Table B-2 entries 15-39, modified protocol, 500 cells/well.
The mark [3] stands for this setting: Table A-2 entries 1-17, protocol as described, 100% = 10 uM Forskolin, read-out: % cAMP Max. relative to forscolin.
[4] abbreviates: Table A-2 entries 1-17, protocol as described (800 000 cells/mL, 5 uL/well), CHO-GPR119 cells.
Setting [5] is: Table A-2 entries 18-25, modified protocol, 500 cells/well, read-out: % cAMP Max. relative to forscolin.
Setting [6] is: Table A-2 entries 18-25, modified protocol, 500 cells/well.
The mark [7] stands for this setting: Table B-2 entries 1-14, protocol as described (800 000 cells/mL, 5 uL/well), CHO-GPR119 cells.

The EC50 is the midpoint of the concentration-response curve. As for `CCc1cnc(N2CC[C@@H](COc3ccc(-c4ccc5c(c4)OC[S@+]5[O-])cc3F)C2)nc1` [Example B-78], the Emax under setting [1] was 72%. The 50% effective concentration (EC50) under setting [2] came to 115 nM.

For `CC(C)c1noc(N2CC(COc3ccc(-c4ccc5c(c4)OCS5(=O)=O)cc3F)C2)n1` [A-52, 6-(3-Fluoro-4-((1-(3-isopropyl-1,2,4-oxadiazol-5-yl)azetidin-3-yl)methoxy)phenyl)-2H-benzo[d][1,3]oxathiole 3,3-dioxide], under setting [3], the Emax was determined as 81%. The EC50 under setting [4] is 24 nM.

For the molecule `CCc1cnc(N2CC[C@@H](COc3ccc(-c4ccc5c(c4)OC[S+]5[O-])cc3F)C2)nc1` (stereo partly drawn) [Example B-67, 6-(4-(((R)-1-(5-Ethylpyrimidin-2-yl)pyrrolidin-3-yl)methoxy)-3-fluorophenyl)-2H-benzo[d][1,3]oxathiole 3-oxide], the Emax under setting [1] turned out to be 74%. The molecule also registered an EC50 under setting [2] of 54 nM.

For the molecule `COc1cnc(N2CCC(COc3ccc(-c4ccc5c(c4)OC[S@+]5[O-])cc3F)CC2)nc1` [Example B-51, (R)-6-(3-Fluoro-4-((1-(5-methoxypyrimidin-2-yl)piperidin-4-yl)methoxy)phenyl)-2H-benzo[d][1,3]oxathiole 3-oxide], the Emax under setting [1] turned out to be 70%. Besides, a half-maximal effect under setting [2] (EC50) was put at 40.6 nM.

In the case of `CCc1cnc(N2CCC(COc3ccc(-c4ccc5c(c4)OCS5)cc3F)CC2)nc1` [Example B-37, 2-(4-((4-(Benzo[d][1,3]oxathiol-6-yl)-2-fluorophenoxy)methyl)piperidin-1-yl)-5-ethylpyrimidine], the Emax under setting [1] is 79%. In addition, a half-maximal response under setting [2] (EC50) required 365 nM.

On to `NCC(=O)N1CCC(COc2ccc(-c3ccc4c(c3)OCS4(=O)=O)cc2F)CC1` [A-17], for which the Emax under setting [3] amounted to 67%. Further, the EC50 under setting [4] is at least 10000 nM.

For the molecule `CC(C)c1cnc(N2CCC(COc3ccc(-c4ccc5c(c4)OCS5(=O)=O)cc3F)CC2)nc1` [Example A-66, 6-(3-Fluoro-4-(1-(5-isopropylpyrimidin-2-yl)piperidin-4-yl)methoxy)phenyl-2H-benzo[d][1,3]oxathiole 3,3-dioxide], the Emax under setting [5] was 80%. Further, the EC50 under setting [6] worked out at 19.1 nM.

`O=S1(=O)COc2cc(-c3ccc(OCc4cnc(C5CCN(c6ncc(Cl)cn6)CC5)s4)c(F)c3)ccc21` [Example A-58, 6-(4-((2-(1-(5-Chloropyrimidin-2-yl)piperidin-4-yl)thiazol-5-yl)methoxy)-3-fluorophenyl)-2H-benzo[d][1,3]oxathiole-3,3-dioxide]: the Emax under setting [3] stood at 73%. Besides, under setting [4], the EC50 amounted to 96 nM.

For `CC(C)[C@H](N)C(=O)N1CCC(COc2ccc(-c3ccc4c(c3)OCS4(=O)=O)cc2F)CC1` [A-19], the Emax under setting [3] was 65%. Besides, the EC50 under setting [4] stood at 4080 nM.

For `CCc1cnc(N2CC[C@H](COc3ccc(-c4ccc5c(c4)OC[S@+]5[O-])cc3F)C2)nc1` [Example B-76], the Emax under setting [1] is 80%. This molecule showed an EC50 under setting [2] of 20.5 nM.

Molecule `[O-][S+]1COc2cc(-c3ccc(OCC4CCNCC4)c(F)c3)ccc21` (centres unmarked) [Example B-18] yielded an EC50 under setting [7] above 500 nM.

Take `CN(C)C(=O)N1CCC(COc2ccc(-c3ccc4c(c3)OCS4(=O)=O)cc2F)CC1` [A-14]: under setting [3], the Emax was 77%. Under setting [4], the EC50 was 86.4 nM.

Consider `[O-][S@+]1COc2cc(-c3ccc(OC[C@H]4CCN(c5ncc(Cl)cn5)C4)c(F)c3)ccc21` [Example B-81, (S)-6-(4-(((S)-1-(5-Chloropyrimidin-2-yl)pyrrolidin-3-yl)methoxy)-3-fluorophenyl)-2H-benzo[d][1,3]oxathiole 3-oxide], for which the Emax under setting [1] turned out to be 95%. Also, under setting [2], the midpoint of the response, the EC50, lay at 30 nM.

With `CC(C)c1cnc(N2CCC(COc3ccc(-c4ccc5c(c4)OCS5)cc3F)CC2)nc1` [Example B-38, 2-(4-((4-(Benzo[d][1,3]oxathiol-6-yl)-2-fluorophenoxy)methyl)piperidin-1-yl)-5-isopropylpyrimidine], the Emax under setting [1] worked out at 78%. Besides, the EC50 under setting [2] came out at 10.5 nM.

`CC(C)(C)C(=O)N1CCC(COc2ccc(-c3ccc4c(c3)OCS4(=O)=O)cc2F)CC1` [A-15]: the Emax under setting [3] is 80%. It took 61.7 nM to reach a half-maximal effect under setting [4] (EC50).

For the molecule `COc1cnc(N2CCC(COc3ccc(-c4ccc5c(c4)OCS5)cc3F)CC2)nc1` [Example B-39, 2-(4-((4-(Benzo[d][1,3]oxathiol-6-yl)-2-fluorophenoxy)methyl)piperidin-1-yl)-5-methoxpyrimidine], under setting [1], the Emax came out at 64%. Moreover, under setting [2], a half-maximal effect (EC50) was put at 2900 nM.

Take `CCc1cnc(N2CC[C@H](COc3ccc(-c4ccc5c(c4)OCS5(=O)=O)cc3F)C2)nc1` [Example A-86, (S)-6-(4-((1-(5-Ethylpyrimidin-2-yl)pyrrolidin-3-yl)methoxy)-3-fluorophenyl)-2H-benzo[d][1,3]oxathiole 3,3-dioxide]: the Emax under setting [5] came to 96%. Also, the EC50 under setting [6] was found to be 166 nM.

Under setting [7], `CC(C)c1cnc(N2CCC(COc3ccc(-c4ccc5c(c4)OC[S+]5[O-])cc3F)CC2)nc1` (centres unmarked) [Example B-28, 6-(3-Fluoro-4-((1-(5-isopropylpyrimidin-2-yl)piperidin-4-yl)methoxy)phenyl)-2H-benzo[d][1,3]oxathiole 3-oxide] registered an EC50 of 3 nM.

`CC(C)C(=O)N1CCC(COc2ccc(-c3ccc4c(c3)OCS4(=O)=O)cc2F)CC1` [A-21]: the Emax under setting [3] was 77%. This molecule yielded an EC50 under setting [4] of 37 nM.

Under setting [7], `CCc1ccnc(N2CCC(COc3ccc(-c4ccc5c(c4)OC[S+]5[O-])cc3F)CC2)n1` (centres unmarked) [Example B-25] yielded an EC50 of 31.8 nM.

For the molecule `CCc1ccnc(N2CCC(COc3ccc(-c4ccc5c(c4)OC[S+]5[O-])cc3F)CC2)n1` (centres unmarked) [Example B-35, 6-(4-((1-(4-Ethylpyrimidin-2-yl)piperidin-4-yl)methoxy)-3-fluorophenyl)-2H-benzo[d][1,3]oxathiole 3-oxide], the Emax under setting [1] was found to be 61%. The same molecule displayed an EC50 under setting [2] of 27.3 nM.

In the case of `O=S1(=O)COc2cc(-c3ccc(OC[C@H]4CCN(c5ncc(Cl)cn5)C4)c(F)c3)ccc21` [Example A-89, (S)-6-(4-((1-(5-Chloropyrimidin-2-yl)pyrrolidin-3-yl)methoxy)-3-fluorophenyl)-2H-benzo[d][1,3]oxathiole 3,3-dioxide], the Emax under setting [5] amounted to 93%. Under setting [6], this molecule showed an EC50 of 46 nM.

Take `O=S1(=O)COc2ccc(-c3ccc(OCC4CCN(c5ncc(Cl)cn5)CC4)c(F)c3)cc21` [A-40]: under setting [3], the Emax worked out at 65%. Under setting [4], the EC50 stood at 369 nM.

The molecule `CC(C)CC(=O)N1CCC(COc2ccc(-c3ccc4c(c3)OC[S+]4[O-])cc2F)CC1` (centres unmarked) [Example B-23, 1-(4-((2-Fluoro-4-(3-oxido-2H-benzo[d][1,3]oxathiol-6-yl)phenoxy)methyl)-piperidin-1-yl)-3-methylbutane-1-one] gave an EC50 under setting [7] of 46.2 nM. In other words, the double-digit nanomolar range.
